≈ marks a conversion by molar mass, not a printed value.

The conditions of this series: buffer; pH 7.4; 200.0 µM.
For orientation: solubility (kinetic) means the concentration staying in solution when a stock, usually in DMSO, is diluted into the medium. `CCN(Cc1ccccc1)C(=O)c1c(-c2ccccc2Cl)noc1C` yielded a solubility (kinetic) of 38.7 µg/mL (≈ 109 µM).

Turning to `CCCOc1ccc(CNC(=S)Nc2ccccc2)cc1Cl`, the kinetic solubility worked out at 1.9 µg/mL (≈ 5.67 µM).

In the case of `COc1cccc(N2CCN(C(=S)Nc3ccc(C)cc3C)CC2)c1`, the kinetic solubility is 0.6 µg/mL (≈ 1.69 µM).

`O=C(Cn1c(=O)oc2ccccc21)NCCc1ccccc1Cl` came in with a solubility (kinetic) of 1.5 µg/mL (≈ 4.53 µM).

Turning to `O=C(CNS(=O)(=O)c1ccc(F)cc1)N1CCCC1`, the solubility (kinetic) is > 42.9 µg/mL.

`N=C(N)N1CCN(Cc2ccccc2)CC1.O=S(=O)(O)O` yielded a solubility (kinetic) of 6.7 µg/mL.

Consider `O=C(c1ccncc1)c1ccc(NC(=O)c2cccs2)cc1`, for which the kinetic solubility came out at 45.9 µg/mL (≈ 149 µM).

Consider `COc1cccc(NC(=O)CN(C)C(=O)c2cc(C)on2)c1`, for which the kinetic solubility was > 45.5 µg/mL.

As for `Cc1ccc(SCC(=O)OCC(=O)NC2(C#N)CCCCC2)cc1`, the solubility (kinetic) is 47.6 µg/mL (≈ 137 µM).

With `O=C(NC1CCCC1)C1CCN(C(=O)c2ccccc2Cl)CC1`, the solubility (kinetic) is > 50.2 µg/mL.

`O=C(Nc1ccc(Br)cc1)c1ccc2c(c1)OCO2`: the solubility (kinetic) came to 1.3 µg/mL (≈ 4.06 µM).

In turn, `CC(=O)OC1OCCOC1NC(=S)Nc1ccc(C)cc1` (stereo unspecified) had a solubility (kinetic) of 44.4 µg/mL (≈ 143 µM).

As for `Nc1ccc(-c2nc(-c3ccccc3)nc3ccccc23)cc1`, the kinetic solubility is 0.5 µg/mL (≈ 1.68 µM). Compared with the last molecule, the solubility kinetic is about 89-fold lower.

Regarding `CN(c1ncnc(N)c1[N+](=O)[O-])C1CCCCC1`, the solubility (kinetic) is > 37.7 µg/mL.

In the case of `O=C(CC(=O)NCc1ccccc1)NCc1ccccc1`, the solubility (kinetic) is > 42.4 µg/mL.

The molecule `CN1c2ccc([N+](=O)[O-])cc2N(C)C1(C)c1ccccc1` (stereo unspecified) registered a solubility (kinetic) of 1.2 µg/mL (≈ 4.24 µM).

With `Cc1ccc(F)cc1NC(=O)N1CCCN(c2ccc(C(F)(F)F)cn2)CC1`, the solubility (kinetic) turned out to be 6.6 µg/mL (≈ 16.7 µM).

With `Cc1cc(N2CCC(C)CC2)nc(-c2ccccc2O)n1`, the kinetic solubility was < 0.2 µg/mL.

With `COC(=O)C1C(c2ccccc2)NC(=O)NC1(O)C(F)(F)Cl` (stereo unspecified), the kinetic solubility is > 50.2 µg/mL.

For the molecule `CCC(=NCCc1ccc(OC)c(OC)c1)c1ccccc1O`, the solubility (kinetic) is > 47 µg/mL.

`COc1ccc(S(=O)(=O)N(CCC#N)Cc2ccco2)cc1OC` had a solubility (kinetic) of 28.2 µg/mL (≈ 80.5 µM).

With `Nc1cc([N+](=O)[O-])cc2oc(-c3ccccc3)cc12`, the kinetic solubility was < 0.3 µg/mL.

On to `Cc1cc(C(=O)N2CCC(C)CC2)on1`, for which the solubility (kinetic) is > 31.2 µg/mL.

Take `CC1COc2ccccc2N1C(=O)c1ccccc1Cl` (stereo unspecified): the solubility (kinetic) was > 43.2 µg/mL.

Regarding `O=C(NC(=O)c1ccccc1Cl)Nc1ccc(-c2cnco2)cc1`, the kinetic solubility was < 0.2 µg/mL.

With `CN1CCN(c2ncnc3scc(-c4ccccc4Cl)c23)CC1`, the solubility (kinetic) was > 51.7 µg/mL.

Turning to `COC(=O)C1=C(N)OC2=C(C(=O)CCC2)C1c1cccnc1` (stereo unspecified), the solubility (kinetic) was found to be 42.7 µg/mL (≈ 142 µM).

As for `CSc1cccc(NC(=O)C(=O)NCc2ccccc2)c1`, the kinetic solubility was < 0.3 µg/mL.

As for `Cc1ccc(S(=O)(=O)NCc2ccco2)cc1C(N)=O`, the kinetic solubility was > 44.1 µg/mL.

`O=C(/C=C/c1ccc(Cl)cc1)OCC(=O)c1ccc[nH]1` returned a kinetic solubility of 2.2 µg/mL (≈ 7.59 µM).

Consider `CCOC(=O)N1CCN(C(=O)c2ccc3[nH]c(C)c(C)c3c2)CC1`, for which the solubility (kinetic) is > 49.4 µg/mL.

Take `CCc1sc(NC(=O)CN2CCC(C(N)=O)CC2)nc1-c1ccccc1`: the solubility (kinetic) was > 55.9 µg/mL.

The molecule `CCOc1ccccc1NC(=O)c1cccc2ccccc12` yielded a kinetic solubility of 7.7 µg/mL (≈ 26.4 µM).

In the case of `CC(C)CN1CCN(CC#Cc2ccccc2)CC1CCO` (stereo unspecified), the kinetic solubility turned out to be 43.6 µg/mL (≈ 145 µM). This solubility kinetic is about 5.7-fold higher than that of the molecule before.

Take `O=C(CNC(=O)c1ccc(Cl)cc1)c1ccccc1`: the kinetic solubility was determined as 6 µg/mL (≈ 21.9 µM).

With `N/C(=N\c1nc2ccccc2o1)NC(=O)/C=C/c1ccccc1`, the solubility (kinetic) was < 0.2 µg/mL.

Consider `COc1ccc(NC(C)c2ccccc2)cc1` (stereo unspecified), for which the solubility (kinetic) is 16.9 µg/mL (≈ 74.3 µM).

For `COc1cc2c(cc1OC)C(c1ccccc1OC(C)C)CC(=O)N2` (stereo unspecified), the solubility (kinetic) was < 0.7 µg/mL.

The molecule `COc1ccc(/C=C/C(=O)c2c(C)cc(C)[nH]c2=O)c2ccccc12` came in with a kinetic solubility of 15.7 µg/mL (≈ 47.1 µM).

Regarding `CCNC(=O)N1CCC(c2nc3ccccc3s2)CC1`, the kinetic solubility is > 43.4 µg/mL.

The molecule `O=C(COC(=O)c1ccc([N+](=O)[O-])cc1)NC12CC3CC(CC(C3)C1)C2` displayed a solubility (kinetic) of 3.3 µg/mL (≈ 9.21 µM).
